Reference: patent US7999119B2, “Compounds having CRTH2 antagonist activity” (Oxagen Limited, priority 2006, dated 2011)
Where “and” joins values, the source holds several entries; their conditions need not be identical. Equal entries are not always repeated. Where two headings read alike, the source gives them in different places.

Tests used:
[1] = test system: DK-PGD2-induced blood eosinophilia; test: Inhibition of DK-PGD2-induced blood eosinophilia in rats; assay type: in vivo, rat; details: female rats, oral dosing 30 min before 10 μg DK-PGD2 intracardiac; ED50 from dose-response curve; the values are: ED50
Description: Evaluation of Compounds of General Formula (I) as Inhibitors of 13,14-dihydro-15-keto prostaglandin D2 (DK-PGD2)-Induced Blood Eosinophilia in Rats
The test compound was dissolved in DMSO and diluted with water to give a final dosing volume of 2 ml/kg.
Female rats (175-250 g; UH colony) were dosed orally with test compound (or vehicle).
30 min after dosing all animals were anaesthetised with isoflurane.
Following induction of anaesthesia, animals receive an intracardiac injection of 10 μg DK-PGD2 in 0.3 ml heparinised (10 U/ml) saline. Control animals received an injection of 0.3 ml heparinised saline.
60 min after the intracardiac injection, animals were injected with an overdose of pentobarbitone sodium and a blood sample was taken (into heparin) by cardiac puncture while the rat was anaesthetised but not dead.
An aliquot of blood (100 μl) was added to Turk's solution and the total leukocyte count determined with a haemocytometer.
A further aliquot of blood (500 μl) was mixed with an equal volume of 4% Dextran (mw 500,000) and the erythrocytes allowed to settle. A cytospin preparation was made from the resulting leukocyte rich fraction.
Cytospin preparations were fixed with methanol (5 min) and stained with May-Grunwald (5 min) and Giemsa (15 min) stains. Finally cytospins were washed in phosphate buffer (pH6.8) and air dried.
Differential leukocyte counts were obtained from the cytospin preparations.
Blood eosinophil numbers were determined from the total leukocyte count and the percentage eosinophils (differential count).
Because it was impractical to generate sufficient data in any given experiment, data were obtained over a number of replicate experiments. Data from these replicate experiments were pooled, to provide at least 5 animals in each group and a dose-response curve fitted following a significance test (Mann Whitney) to determine whether or not DK-PGD2 caused a significant increase in blood eosinophils (GraphPad, Prism). A difference between groups was taken to be significant when P<0.05. ED50 values were calculated from the dose-response curve.

[2] = Pharmacokinetics following oral administration in the rat; assay type: in vivo; details: 3 mg/kg; for Fold over IC50 at 24 h: mean blood concentration at 24 h (rat, 3 mg/kg p.o.) divided by whole blood IC50 in ng/ml
Description: Investigation of Pharmacokinetics of Compounds of General Formula (I) Following Oral Administration in the Rat
Rats were weighed on the day of dosing.
The test material was prepared as a 0.3 mg/mL suspension in 1% carboxy-methyl-cellulose (CMC).
Three groups of 3 rats were dosed as follows:
Doses were administered as a single oral dose using a gavage tube at a constant dose volume of 10 mL/kg.
At each sampling time point blood samples (approximately 0.3 mL) was taken from a catheter inserted into a lateral tail vein prior to the start of the experiment. The final blood sample (approximately 2 mL) from each animal was taken by cardiac puncture under isoflurane anaesthesia following which the animal was killed by exsanguination. Blood samples were taken into individual heparinised containers. Blood samples were collected at the following times post-dose:
Following collection, the blood samples were centrifuged (approximately 10,000×g, 2 min at 4° C.) and the plasma stored as one aliquot at approximately −20° C. pending analysis of drug concentrations by LC-MS/MS.
The plasma samples were analysed for test material concentrations at BioDynamics using an LC-MS/MS method developed at BioDynamics.

[3] = test system: PGD2 induced eosinophil shape change; test: Human whole blood eosinophil shape change assay; assay type: cell-based; details: Homo sapiens, Eosinophil
Description: Human Whole Blood Eosinophil Shape Change Assay
Compounds 1 to 3 were assayed for their effect on PGD2 induced eosinophil shape change and were compared with Comparator Compounds A to G.
Shape Change Assay in Whole Blood
Compounds (1 μl, 200× final concentration) were added directly to 200 μl whole blood, mixed well and incubated for 15 min, 37° C., 5% CO2. After this time, cell shape was fixed by addition of 300 μl Cytofix™ buffer (BD Biosciences), 15 min on ice. 10 ml RBC lysis buffer was added to the fixed cells, incubated 5 min, at room temperature and centrifuged, 300×g for 5 min. Supernatant (containing lysed red cells) was removed and the lysis step was repeated. Leukocytes were resuspended in 250 μl RPMI/10% FCS and shape change analysed by FACS. Eosinophils were gated out based on their autofluorescence and 2000 eosinophil events were counted per sample. Data were analysed in triplicate.

[4] = rat, 3 mg/kg p.o, individual male animals

Cc1c(Cc2ccc3ccccc3n2)c2cc(F)ccc2n1CC(=O)O [Compound A, (5-Fluoro-2-methyl-3-quinolin-2-ylmethyl-indol-1-yl)-acetic acid, reference compound]
Potency in inhibition of DK-PGD2-induced blood eosinophilia [1]: 37 mg/kg
concentration at 0.25 h ([2]; male, rat, plasma, po, rat, 3 mg/kg oral, 0.25 h, mean, read-out: Concentration in Blood, Mean): 120 ng/mL
concentration at 0.5 h ([2]; male, rat, plasma, po, rat, 3 mg/kg oral, 0.5 h, individual male animals, read-out: Concentration in Blood): 426 ng/mL
concentration at 0.5 h ([2]; male, rat, plasma, po, rat, 3 mg/kg oral, 0.5 h, mean, read-out: Concentration in Blood, Mean): 357 ng/mL
concentration at 1 h ([2]; male, rat, plasma, po, rat, 3 mg/kg oral, 1 h, individual male animals, read-out: Concentration in Blood): 875 ng/mL
concentration at 1 h ([2]; male, rat, plasma, po, rat, 3 mg/kg oral, 1 h, mean, read-out: Concentration in Blood, Mean): 779 ng/mL
concentration at 2 h ([2]; male, rat, plasma, po, rat, 3 mg/kg oral, 2 h, individual male animals, read-out: Concentration in Blood): 1420 ng/mL
concentration at 2 h ([2]; male, rat, plasma, po, rat, 3 mg/kg oral, 2 h, mean, read-out: Concentration in Blood, Mean): 1250 ng/mL
concentration at 4 h ([2]; male, rat, plasma, po, rat, 3 mg/kg oral, 4 h, individual male animals, read-out: Concentration in Blood): 923 ng/mL
concentration at 4 h ([2]; male, rat, plasma, po, rat, 3 mg/kg oral, 4 h, mean, read-out: Concentration in Blood, Mean): 857 ng/mL
concentration at 6 h ([2]; male, rat, plasma, po, rat, 3 mg/kg oral, 6 h, individual male animals, read-out: Concentration in Blood): 404 ng/mL
concentration at 6 h ([2]; male, rat, plasma, po, rat, 3 mg/kg oral, 6 h, mean, read-out: Concentration in Blood, Mean): 451 ng/mL
concentration at 8 h ([2]; male, rat, plasma, po, rat, 3 mg/kg oral, 8 h, mean, read-out: Concentration in Blood, Mean): 354 ng/mL
concentration at 24 h ([2]; male, rat, plasma, po, rat, 3 mg/kg oral, 24 h, mean, read-out: Concentration in Blood, Mean): 43.7 ng/mL
AUC(0-inf) ([2]; male, rat, plasma, po, rat, 3 mg/kg p.o, individual male animals, read-out: AUCinf): 8570 ng·h/mL
Cmax ([2]; male, rat, plasma, po, rat, 3 mg/kg p.o, individual male animals, read-out: Cmax): 1420 ng/mL
Tmax ([2]; male, rat, plasma, po, rat, 3 mg/kg p.o, individual male animals, read-out: Tmax): 2 h
AUC(0-inf) ([2]; male, rat, plasma, po, rat, 3 mg/kg p.o, mean, summary without unit (Table 12), read-out: AUCinf (mean)): 8160 ng·h/mL
Cmax ([2]; male, rat, plasma, po, rat, 3 mg/kg p.o, mean, summary without unit (Table 12), read-out: Cmax (mean)): 1250 ng/mL
AUC(0-inf) ([2]; male, rat, plasma, po, rat, 3 mg/kg p.o, mean, read-out: AUCinf, Mean): 8160 ng·h/mL
Cmax ([2]; male, rat, plasma, po, rat, 3 mg/kg p.o, mean, read-out: Cmax, Mean): 1250 ng/mL
Tmax ([2]; male, rat, plasma, po, rat, 3 mg/kg p.o, mean, read-out: Tmax, Mean): 2 h
half-life ([2]; male, rat, plasma, po, rat, 3 mg/kg p.o, mean, read-out: T½, Mean (converted)): 4.8 h
Fold over IC50 at 24 h [2]: 1.2
Fold over IC50 at 24 h ([2]; listed as Compound (A)): ca. 1.2
Concentration in Blood ([2]; rat, 3 mg/kg oral, 0.25 h, individual male animals): 139.1 ng/mL and 153.9 ng/mL and 68.3 ng/mL
Concentration in Blood ([2]; rat, 3 mg/kg oral, 0.5 h, individual male animals): 388.4 ng/mL and 256.3 ng/mL
Concentration in Blood ([2]; rat, 3 mg/kg oral, 1 h, individual male animals): 923.2 ng/mL and 538.8 ng/mL
Concentration in Blood ([2]; rat, 3 mg/kg oral, 2 h, individual male animals): 1309.0 ng/mL and 1013.6 ng/mL
Concentration in Blood ([2]; rat, 3 mg/kg oral, 4 h, individual male animals): 820.5 ng/mL and 827.0 ng/mL
Concentration in Blood ([2]; rat, 3 mg/kg oral, 6 h, individual male animals): 514.8 ng/mL and 432.6 ng/mL
Concentration in Blood ([2]; rat, 3 mg/kg oral, 8 h, individual male animals): 305.6 ng/mL and 521.9 ng/mL and 235.5 ng/mL
Concentration in Blood ([2]; rat, 3 mg/kg oral, 24 h, individual male animals): 51.8 ng/mL and 79.2 ng/mL and 0.0 ng/mL
AUCinf [2, 4]: 10429.2 ng·h/mL and 5473.9 ng·h/mL
Cmax [2, 4]: 1309.0 ng/mL and 1013.6 ng/mL
T½ [2, 4]: 6.1 hours (2×) and 2.2 hours
Cmax (mean) ([2]; rat, 3 mg/kg p.o, mean, summary without unit (Table 12), in ng/mL): 1246
AUCinf (mean) ([2]; rat, 3 mg/kg p.o, mean, summary without unit (Table 12), in ng·h/mL): 8158
IC50 ([3]; 10 nm PGD2-induced eosinophil shape change, human whole blood, read-out: Whole Blood IC50): 0.103 µM
IC50 ([3]; Table 12 summary of whole blood eosinophil shape change IC50, read-out: IC50 (μmol)): 0.103 µM
IC50 ([3]; whole blood eosinophil shape change IC50 converted to ng/mL, read-out: IC50): 0.0358 µg/mL
